Laboratory results: publication PMC3799614, “Combinatorial Engineering of Dextransucrase Specificity” (PLoS ONE, 2013)

Test system: T1, DSR-S vardel Δ4N (Thio-DSR-S vardel Δ4N-His)
T1 construct: gene dsrS; truncated form (variable region and part of C-terminal region deleted)
Assay: initial velocity, released fructose by HPLC
Assay type: biochemical, Leuconostoc mesenteroides
Conditions: 50 mM sodium acetate pH 5.2, 0.05 g/L CaCl2, 25 °C; 10-600 mM sucrose; fit with substrate inhibition
Text: initial velocity, released fructose by HPLC on DSR-S vardel Δ4N (Thio-DSR-S vardel Δ4N-His)

OC[C@H]1O[C@@](CO)(O[C@H]2O[C@H](CO)[C@@H](O)[C@H](O)[C@H]2O)[C@@H](O)[C@@H]1O [sucrose]
Km: 115.8 mM
